According to US20220324865A1 (Bayer Aktiengesellschaft, priority 2018, published 2022):

biological target: T1, human EP3 receptor (Homo sapiens, UniProt P43115); test: Cellular in vitro assay for determining EP3 receptor activity (human EP3 cell line, sulprostone-stimulated calcium luminescence); assay type: cell-based; conditions: CHO cells expressing human EP3 and mitochondrial Clytin; antagonist mode, sulprostone at EC50; read-out: EP3 CHO mtCLY ANTAG IC50
T1 construct: expressed in transfected cells; host or cells: CHO K1 (Chinese Hamster Ovary), stably co-transfected with Galpha16 and mitochondrial clytin
T1 sequence (P43115 1-390): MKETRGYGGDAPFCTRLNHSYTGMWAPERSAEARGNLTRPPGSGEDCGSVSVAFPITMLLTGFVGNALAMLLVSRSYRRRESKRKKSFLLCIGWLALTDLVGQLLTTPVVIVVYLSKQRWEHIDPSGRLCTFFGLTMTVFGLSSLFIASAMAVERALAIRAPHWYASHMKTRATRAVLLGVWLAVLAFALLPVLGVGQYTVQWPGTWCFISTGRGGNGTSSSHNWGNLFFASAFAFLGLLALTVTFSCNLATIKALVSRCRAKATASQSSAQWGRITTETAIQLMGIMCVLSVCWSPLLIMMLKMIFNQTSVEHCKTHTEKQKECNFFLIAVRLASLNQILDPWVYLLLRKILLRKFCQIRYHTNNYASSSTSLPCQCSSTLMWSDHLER
Procedure, shortened: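 Antagonist activity was measured as inhibition of the luminescent calcium signal elicited by EC50 sulprostone, following 10 min compound pretreatment. The cell line was recombinant CHO K1 co-expressing human EP3, Gα16 and the photoprotein Clytin, reconstituted with coelenterazine.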

In order of rising IC50:
1. Cc1cc(-c2cn3nc(C(=O)N[C@H](CCO)c4ccc(F)cc4)c(C(F)(F)F)c3c(=O)[nH]2)ccc1Cl [6-233]  0.37 nM
2. O=C(N[C@H](CCO)c1ccc(F)cc1)c1nn2cc(-c3ccc(Cl)c(Cl)c3)[nH]c(=O)c2c1C1CC1 [6-425]  0.52 nM
3. COc1cc(-c2cn3nc(C(=O)N[C@@H](C)C4CC4)c(C4CC4)c3c(=O)[nH]2)ccc1Cl [6-481]  0.57 nM
4. COc1ccc([C@@H](C)NC(=O)c2nn3cc(-c4ccc5ccccc5c4)[nH]c(=O)c3c2C(F)(F)F)cn1 [Example 1-79, N-[(1R)-1-(6-Methoxpyridin-3-yl)ethyl]-6-(naphthalen-2-yl)-4-oxo-3-(trifluoromethyl)-4,5-dihydro-pyrazolo[1,5-a]pyrazine-2-carboxamide]  0.6 nM
5. Cc1ccc(-c2cn3nc(C(=O)NC(c4ccc(F)cc4)C(C)(C)O)c(C4CC4)c3c(=O)[nH]2)cc1F (racemic) [6-402]  0.82 nM
6. O=C(N[C@H](CCO)c1ccc(F)cc1)c1cc2c(=O)[nH]c(-c3ccc4c(c3)CCC4)cn2n1 [Example 1-97, 6-(2,3-Dihydro-1H-inden-5-yl)-N-[(1R)-1-(4-fluorophenyl)-3-hydroxpropyl]-4-oxo-4,5-dihydropyrazolo[1,5-a]pyrazine-2-carboxamide]  0.88 nM
7. Cc1ccc(-c2cn3nc(C(=O)N[C@@H](c4ccc(F)cc4)C(C)(C)O)c(C(F)(F)F)c3c(=O)[nH]2)cc1Cl [Example 1-151, 6-(3-Chloro-4-methylphenyl)-N-[(1S)-1-(4-fluorophenyl)-2-hydroxy-2-methylpropyl]-4-oxo-3-(trifluoromethyl)-4,5-dihydropyrazolo[1,5-a]pyrazine-2-carboxamide]  1.15 nM
8. Cc1c(C(=O)N[C@H](CO)c2ccccc2)nn2c(C)c(-c3ccc4ccccc4c3)[nH]c(=O)c12 [Example 3-2, N-[(1S)-2-Hydroxy-1-phenylethyl]-3,7-dimethyl-6-(naphthalen-2-yl)-4-oxo-4,5-dihydropyrazolo[1,5-a]pyrazine-2-carboxamide]  1.2 nM
9. C[C@@H](NC(=O)c1cc2c(=O)[nH]c(-c3ccc4ccccc4n3)cn2n1)c1ccc(F)cc1 [Example 1-105, N-[(1R)-1-(4-Fluorophenyl)ethyl]-4-oxo-6-(quinolin-2-yl)-4,5-dihydropyrazolo[1,5-a]pyrazine-2-carboxamide]  1.48 nM
10. COC(=O)N1CC(NC(=O)c2cc3c(=O)[nH]c(-c4ccc(C)c(C)c4)cn3n2)(c2ccc(OC)cc2)C1 [Example 1-66, Methyl 3-({[6-(3,4-dimethylphenyl)-4-oxo-4,5-dihydropyrazolo[1,5-a]pyrazin-2-yl]carbonyl}amino)-3-(4-methoxyphenyl)azetidine-1-carboxylate]  1.65 nM
11. COc1ccc(CNC(=O)c2cc3c(=O)[nH]c(-c4ccc5c(c4)N(C)CCO5)cn3n2)cc1OC [Example 1-16, N-(3,4-Dimethoxybenzyl)-6-(4-methyl-3,4-dihydro-2H-1,4-benzoxazin-6-yl)-4-oxo-4,5-dihydropyrazolo[1,5-a]pyrazine-2-carboxamide]  2 nM
12. Cc1[nH]c2ccc(CNC(=O)c3nn4cc(-c5cnc6cccc(C)c6c5)[nH]c(=O)c4c3C(C)C)cc2c1C [Example 4-10, N-[(2,3-Dimethyl-1H-indol-5-yl)methyl]-6-(5-methylquinolin-3-yl)-4-oxo-3-(propan-2-yl)-4,5-dihydropyrazolo[1,5-a]pyrazine-2-carboxamide]  2 nM
13. CC(NC(=O)c1cc2c(=O)[nH]c(-c3ccc4ccccc4c3)cn2n1)c1ccc(Cl)c(Cl)c1 (centres unmarked) [Example 2-51, N-[1-(3,4-Dichlorphenyl)ethyl]-6-(2-naphthyl)-4-oxo-4,5-dihydropyrazolo[1,5-a]pyrazine-2-carboxamide]  2.05 nM
14. O=C(NCc1cc(F)cc(F)c1)c1cc2c(=O)[nH]c(-c3ccc4ccccc4c3)cn2n1 [Example 2-31, N-(3,5-Difluorbenzyl)-6-(2-naphthyl)-4-oxo-4,5-dihydropyrazolo[1,5-a]pyrazine-2-carboxamide]  2.55 nM
15. Cc1cc(-c2cn3nc(C(=O)NC4(c5ccc(F)cc5)CN(CC(F)F)C4)c(C(F)(F)F)c3c(=O)[nH]2)ccc1Cl [6-239]  3.1 nM
16. COc1ccc(C(NC(=O)c2nn3cc(-c4ccc5ccccc5c4)[nH]c(=O)c3c2C#N)C2CC2)cc1 (centres unmarked) [Example 3-56, 3-Cyano-N-[cyclopropyl(4-methoxyphenyl)methyl]-6-(2-naphthyl)-4-oxo-5H-pyrazolo[1,5-a]pyrazine-2-carboxamide]  3.15 nM
17. C[C@H](NC(=O)c1nn2cc(-c3ccc4ccccc4c3)[nH]c(=O)c2c1C#N)c1ccccc1 [Example 3-46, 3-Cyano-6-(naphthalen-2-yl)-4-oxo-N-[(1S)-1-phenylethyl]-4,5-dihydropyrazolo[1,5-a]pyrazine-2-carboxamide]  3.2 nM
18. CC(NC(=O)c1cc2c(=O)[nH]c(-c3ccc4ccccc4c3)cn2n1)c1ccc(Cl)cc1Cl (centres unmarked) [Example 2-47, N-[1-(2,4-Dichlorphenyl)ethyl]-6-(2-naphthyl)-4-oxo-4,5-dihydropyrazolo[1,5-a]pyrazine-2-carboxamide]  3.27 nM
19. Cc1ccc(-c2cn3nc(C(=O)NCC(C)(C)O)c(C4CC4)c3c(=O)[nH]2)cc1Cl [6-285]  3.35 nM
20. CC(C)(O)[C@@H](NC(=O)c1nn2cc(-c3ccc(Cl)cc3)[nH]c(=O)c2c1C1CC1)c1ccc(F)cc1 [6-676]  3.55 nM
21. Cc1ccc(-c2cn3nc(C(=O)NC4(c5ccc(F)cc5)CN(C)C4)c(C(F)(F)F)c3c(=O)[nH]2)cc1C [Example 1-93, 6-(3,4-Dimethylphenyl)-N-[3-(4-fluorophenyl)-1-methylazetidin-3-yl]-4-oxo-3-(trifluoromethyl)-4,5-dihydropyrazolo[1,5-a]pyrazine-2-carboxamide]  3.58 nM
22. Cc1ccc(-c2cn3nc(C(=O)N[C@@H](c4ccccc4)C(C)(C)O)cc3c(=O)[nH]2)cc1C [Example 1-54, 6-(3,4-Dimethylphenyl)-N-[(1S)-2-hydroxy-2-methyl-1-phenylpropyl]-4-oxo-4,5-dihydropyrazolo-[1,5-a]pyrazine-2-carboxamide]  3.65 nM
23. O=C(N[C@@H]1CCCc2ccccc21)c1cc2c(=O)[nH]c(-c3ccc4ccccc4c3)cn2n1 [Example 2-43, 6-(2-Naphthyl)-4-oxo-N-[(7R)-1,2,3,4-tetrahydronaphthalin-1-yl]-4,5-dihydropyrazolo[1,5-a]pyrazine-2-carboxamide]  3.7 nM
24. Cc1c(C(=O)NC(C)c2ccccc2OC(F)F)nn2c(C)c(-c3ccc4ccccc4c3)[nH]c(=O)c12 (centres unmarked) [Example 3-43, N-[1-[2-(Difluoromethoxy)phenyl]ethyl]-3,7-dimethyl-6-(2-naphthyl)-4-oxo-5H-pyrazolo[1,5-a]pyrazine-2-carboxamide]  3.85 nM
25. Cc1cccc2ncc(-c3cn4nc(C(=O)NC(CO)c5cc(Cl)cc(Cl)c5)c(C(C)C)c4c(=O)[nH]3)cc12 (centres unmarked) [Example 4-66, N-[1-(3,5-Dichlorophenyl)-2-hydroxyethyl]-3-isopropyl-6-(5-methyl-3-quinolyl)-4-oxo-5H-pyrazolo[1,5-a]pyrazine-2-carboxamide]  3.9 nM
26. COC[C@H](NC(=O)c1nn2cc(-c3ccc(C)c(Cl)c3)[nH]c(=O)c2c1C1CC1)c1ccccc1 [6-277]  4.1 nM
27. O=C(NCc1ccccc1)c1cc2c(=O)[nH]c(-c3ccc4ccccc4c3)cn2n1 [6-16]  4.16 nM
28. Cc1ccc(-c2cn3nc(C(=O)NC4(c5ccc(F)cc5)CC4)cc3c(=O)[nH]2)cc1C(F)(F)F [6-26]  5 nM
29. Cc1ccc(-c2cn3nc(C(=O)N[C@@]4(C)CCS(=O)(=O)C4)c(C4CC4)c3c(=O)[nH]2)cc1F (racemic) [6-376]  5.07 nM
30. O=C(NCCc1ccccc1)c1cc2c(=O)[nH]c(-c3ccc4c(c3)OCCO4)cn2n1 [6-21]  5.35 nM
31. Cc1cc(-c2cn3nc(C(=O)N[C@H](C)c4ccc(F)cc4)c(C4CC4)c3c(=O)[nH]2)ccc1C(F)(F)F [Example 1-131, 3-Cyclopropyl-N-[(1R)-1-(4-fluorophenyl)ethyl]-6-[3-methyl-4-(trifluoromethyl)phenyl]-4-oxo-4,5-dihydropyrazolo[1,5-a]pyrazine-2-carboxamide]  5.45 nM
32. CC(C)(O)[C@@H](NC(=O)c1nn2cc(-c3ccc(C(F)(F)F)c(F)c3)[nH]c(=O)c2c1C1CC1)c1ccc(F)cc1 [6-588]  5.6 nM
33. CCn1ccc(C(C)NC(=O)c2cc3c(=O)[nH]c(-c4ccc5ccccc5c4)cn3n2)n1 (centres unmarked) [Example 2-54, N-[1-(1-Ethyl-1H-pyrazol-3-yl)ethyl]-6-(2-naphthyl)-4-oxo-4,5-dihydropyrazolo[1,5-a]pyrazine-2-carboxamide]  7.05 nM
34. Cc1ccc(-c2cn3nc(C(=O)NC(CN(C)C)c4ccc(F)cc4)c(C4CC4)c3c(=O)[nH]2)cc1C (single isomer, unassigned) [6-445]  7.1 nM
35. O=C(NC(CO)(CO)C(F)(F)F)c1nn2cc(-c3ccc4ccccc4c3)[nH]c(=O)c2c1C(F)(F)F [6-498]  7.13 nM
36. O=C(N[C@H]1CCc2ccccc21)c1cc2c(=O)[nH]c(-c3ccc4ccccc4c3)cn2n1 [Example 2-42, N-[(7S)-2,3-Dihydro-1H-inden-1-yl]-6-(2-naphthyl)-4-oxo-4,5-dihydropyrazolo[1,5-a]pyrazine-2-carboxamide]  7.27 nM
37. Cc1ccc(-c2cn3nc(C(=O)NC(CN(C)C)c4ccc(F)cc4)c(C4CC4)c3c(=O)[nH]2)cc1C (single isomer, unassigned) [6-446]  8.05 nM
38. Cc1ccc(-c2cn3nc(C(=O)N[C@@H](c4ccccc4)C(C)(C)O)cc3c(=O)[nH]2)cc1F [6-640]  9.4 nM
